In the NIST ThermoML archive (doi:10.1021/je1012857):

Assay: xn = mol fraction of the nth substance listed
Settings: 101 kPa, Liquid; for speed of sound: Sing-around technique in a fixed-path interferometer; for viscosity: Capillary tube (Ostwald / Ubbelohde) method

NCCN [ethane-1,2-diamine] + CCCCO
Settings	mass density [kg/m3]	speed of sound [m/s]	viscosity [mPa·s]
293.15 K, x1 = 0.0528	815.585	1279.7	–
293.15 K, x1 = 0.1135	822.116	1302.1	–
293.15 K, x1 = 0.1488	825.769	1315.9	–
293.15 K, x1 = 0.214	832.273	1341.7	–
293.15 K, x1 = 0.2602	836.674	1360.5	–
293.15 K, x1 = 0.3286	842.718	1387.1	–
293.15 K, x1 = 0.3985	848.216	1414.5	–
293.15 K, x1 = 0.5036	856.28	1456.5	–
293.15 K, x1 = 0.5965	863.365	1494.7	–
293.15 K, x1 = 0.7081	872.153	1543.9	–
293.15 K, x1 = 0.7931	879.359	1584.7	–
293.15 K, x1 = 0.8504	884.315	1613.6	–
293.15 K, x1 = 0.8979	888.772	1639.1	–
293.15 K, x1 = 0.936	892.567	1660.5	–
298.15 K, x1 = 0.0528	811.698	1262.9	2.609
298.15 K, x1 = 0.1135	818.144	1285	2.591
298.15 K, x1 = 0.1488	821.746	1298.6	2.584
298.15 K, x1 = 0.214	828.164	1324.3	2.53
298.15 K, x1 = 0.2602	832.509	1342.9	2.484
298.15 K, x1 = 0.3283	–	–	2.412
298.15 K, x1 = 0.3286	838.245	1368.8	–
298.15 K, x1 = 0.3985	843.943	1396.3	2.327
298.15 K, x1 = 0.5036	851.943	1437.7	2.184
298.15 K, x1 = 0.5965	858.974	1475.5	2.03
298.15 K, x1 = 0.7081	867.696	1523.9	1.842
298.15 K, x1 = 0.7931	874.839	1564.1	1.697
298.15 K, x1 = 0.8504	879.75	1592.5	1.604
298.15 K, x1 = 0.8979	884.168	1617.5	1.538
298.15 K, x1 = 0.936	887.932	1638.7	1.481
303.15 K, x1 = 0.0528	807.785	1245.9	2.298
303.15 K, x1 = 0.1135	814.153	1267.9	2.3
303.15 K, x1 = 0.1488	817.703	1281.4	2.292
303.15 K, x1 = 0.214	824.038	1306.8	2.245
303.15 K, x1 = 0.2602	828.329	1325.3	2.213
303.15 K, x1 = 0.3283	–	–	2.147
303.15 K, x1 = 0.3286	833.896	1350.9	–
303.15 K, x1 = 0.3985	839.656	1378.1	2.071
303.15 K, x1 = 0.5036	847.599	1419.1	1.942
303.15 K, x1 = 0.5965	854.57	1456.3	1.813
303.15 K, x1 = 0.7081	863.224	1504	1.648
303.15 K, x1 = 0.7931	870.306	1543.5	1.531
303.15 K, x1 = 0.8504	875.173	1571.4	1.448
303.15 K, x1 = 0.8979	879.552	1596.1	1.381
303.15 K, x1 = 0.936	883.288	1616.8	1.334
308.15 K, x1 = 0.0528	803.849	1228.5	2.001
308.15 K, x1 = 0.1135	810.137	1250.7	2.009
308.15 K, x1 = 0.1488	813.64	1264.3	1.995
308.15 K, x1 = 0.214	819.892	1289.5	1.954
308.15 K, x1 = 0.2602	824.133	1307.8	1.923
308.15 K, x1 = 0.3283	–	–	1.866
308.15 K, x1 = 0.3286	829.828	1333.6	–
308.15 K, x1 = 0.3985	835.352	1360	1.798
308.15 K, x1 = 0.5036	843.235	1400.4	1.697
308.15 K, x1 = 0.5965	850.157	1437.1	1.601
308.15 K, x1 = 0.7081	858.739	1484.2	1.471
308.15 K, x1 = 0.7931	865.762	1523	1.377
308.15 K, x1 = 0.8504	870.584	1550.5	1.314
308.15 K, x1 = 0.8979	874.924	1574.8	1.25
308.15 K, x1 = 0.936	878.628	1595.3	1.198
313.15 K, x1 = 0.0528	799.876	1210.7	–
313.15 K, x1 = 0.1135	806.088	1233.6	–
313.15 K, x1 = 0.1488	809.548	1247.2	–
313.15 K, x1 = 0.214	815.723	1272.3	–
313.15 K, x1 = 0.2602	819.91	1290.4	–
313.15 K, x1 = 0.3286	825.879	1315.8	–
313.15 K, x1 = 0.3985	831.025	1341.9	–
313.15 K, x1 = 0.5036	838.849	1381.7	–
313.15 K, x1 = 0.5965	845.718	1418.1	–
313.15 K, x1 = 0.7081	854.232	1464.4	–
313.15 K, x1 = 0.7931	861.194	1502.7	–
313.15 K, x1 = 0.8504	865.971	1529.7	–
313.15 K, x1 = 0.8979	870.277	1553.1	–
313.15 K, x1 = 0.936	873.95	1573.7	–

NCCN [ethane-1,2-diamine] + CC(C)CO
Settings	mass density [kg/m3]	speed of sound [m/s]	viscosity [mPa·s]
293.15 K, x1 = 0.0664	809.959	1236.6	–
293.15 K, x1 = 0.0967	813.41	1250.3	–
293.15 K, x1 = 0.1652	821.052	1280.8	–
293.15 K, x1 = 0.2002	824.886	1296.8	–
293.15 K, x1 = 0.2617	831.17	1324.1	–
293.15 K, x1 = 0.3019	835.134	1342.3	–
293.15 K, x1 = 0.4093	844.755	1389.6	–
293.15 K, x1 = 0.5014	852.563	1431	–
293.15 K, x1 = 0.6011	861.131	1478	–
293.15 K, x1 = 0.6911	868.086	1520.5	–
293.15 K, x1 = 0.7887	876.941	1571.6	–
293.15 K, x1 = 0.8471	882.565	1603.7	–
293.15 K, x1 = 0.8998	887.801	1634.3	–
293.15 K, x1 = 0.9391	892.054	1658.5	–
298.15 K, x1 = 0.0664	806.006	1219.4	3.231
298.15 K, x1 = 0.0967	809.413	1233.1	3.209
298.15 K, x1 = 0.1652	816.964	1263.3	3.134
298.15 K, x1 = 0.2002	820.75	1279.2	3.094
298.15 K, x1 = 0.2617	826.969	1306.3	3.006
298.15 K, x1 = 0.3019	830.903	1324.5	2.94
298.15 K, x1 = 0.4093	840.455	1371.4	2.724
298.15 K, x1 = 0.5014	848.217	1412.2	2.495
298.15 K, x1 = 0.6011	856.736	1458.7	2.216
298.15 K, x1 = 0.6911	863.637	1500.6	1.958
298.15 K, x1 = 0.7887	872.42	1550.9	1.716
298.15 K, x1 = 0.8471	878.003	1582.6	1.591
298.15 K, x1 = 0.8998	883.197	1612.7	1.501
298.15 K, x1 = 0.9391	887.411	1636.5	1.456
303.15 K, x1 = 0.0664	802.02	1202.4	2.711
303.15 K, x1 = 0.0967	805.385	1216	2.699
303.15 K, x1 = 0.1652	812.854	1246.1	2.648
303.15 K, x1 = 0.2002	816.592	1261.8	2.625
303.15 K, x1 = 0.2617	822.547	1288.6	2.553
303.15 K, x1 = 0.3019	826.644	1306.7	2.502
303.15 K, x1 = 0.4093	836.134	1353.1	2.325
303.15 K, x1 = 0.5014	843.853	1393.5	2.135
303.15 K, x1 = 0.6011	852.325	1439.5	1.895
303.15 K, x1 = 0.6911	859.166	1480.6	1.698
303.15 K, x1 = 0.7887	867.883	1530.2	1.502
303.15 K, x1 = 0.8471	873.42	1561.5	1.404
303.15 K, x1 = 0.8998	878.575	1591.2	1.335
303.15 K, x1 = 0.9391	882.76	1614.6	1.294
308.15 K, x1 = 0.0664	797.994	1185.4	2.18
308.15 K, x1 = 0.0967	801.327	1198.8	2.169
308.15 K, x1 = 0.1652	808.708	1228.7	2.147
308.15 K, x1 = 0.2002	812.41	1244.4	2.135
308.15 K, x1 = 0.2617	818.501	1271.1	2.097
308.15 K, x1 = 0.3019	822.366	1288.9	2.059
308.15 K, x1 = 0.4093	831.795	1334.9	1.924
308.15 K, x1 = 0.5014	839.474	1374.9	1.776
308.15 K, x1 = 0.6011	847.896	1420.2	1.583
308.15 K, x1 = 0.6911	854.681	1460.9	1.446
308.15 K, x1 = 0.7887	863.336	1509.8	1.314
308.15 K, x1 = 0.8471	868.829	1540.7	1.248
308.15 K, x1 = 0.8998	873.941	1570.1	1.191
308.15 K, x1 = 0.9391	878.094	1593.1	1.154
313.15 K, x1 = 0.0664	793.931	1168.4	–
313.15 K, x1 = 0.0967	797.223	1181.6	–
313.15 K, x1 = 0.1652	804.528	1211.5	–
313.15 K, x1 = 0.2002	808.187	1227.1	–
313.15 K, x1 = 0.2617	814.225	1253.6	–
313.15 K, x1 = 0.3019	818.055	1271.2	–
313.15 K, x1 = 0.4093	827.425	1316.9	–
313.15 K, x1 = 0.5014	835.064	1356.4	–
313.15 K, x1 = 0.6011	843.444	1400.9	–
313.15 K, x1 = 0.6911	850.175	1441.2	–
313.15 K, x1 = 0.7887	858.761	1489.6	–
313.15 K, x1 = 0.8471	864.211	1520.1	–
313.15 K, x1 = 0.8998	869.284	1548.9	–
313.15 K, x1 = 0.9391	873.407	1571.7	–
